# Experimental data: patent publication US20220062317A1, “NA+/K+ ATPASE INHIBITORS FOR USE IN THE PREVENTION OR TREATMENT OF METASTASIS” (UNIVERSITÄT BASEL, priority 2018, published 2022)
# “And” between values parts separate entries of the source, which are not always exact repeats. Equal values may be shown once.
# How the values were obtained:
# BR16 CTC-derived cells = test: FDA-approved compound screen for CTC cluster dissociation (high content imaging); format: cell-based, human; details: even at lowest concentration tested (0.1 μM), 2 days, hypoxia
# Method: In order to identify actionable vulnerabilities of CTC clusters, and to test whether the epigenetic and transcriptional features of clustered CTCs are reversible upon cluster dissociation into single cells the following steps were undertaken. First, the expression of all known cell-cell junction (CCJ) components in patient samples obtained from normal breast (TGCA REF), breast cancer (TOGA REF), single CTCs and CTC clusters were assessed (Aceto et al. Cell 2014). While breast cancer cells tend to only partially reduce their CCJ repertoire compared to normal breast cells, CTCs express only a small fraction of CCJ components, likely as a consequence to their increased motility. Yet, CTC clusters retain a higher number of CCJs as compared to single CTCs. […] To this end, 2′486 FDA-approved compounds were evaluated for their ability to dissociate clusters of human breast CTC-derived cells. Cluster dissociation was assessed using a high content screening microscope and comparing cells treated with each individual compound to steady state clustered BR16 cells and 40 μm-filtered BR16 single cell suspension as negative and positive controls, respectively (FIG. 4a). […] For the majority of the 2′486 FDA-approved compounds, when using a 5 μM concentration for 2 days in hypoxic conditions, no detectable reduction in cell viability (>70% viability) nor mean cluster size (>450 μm2) in BR16 CTC-derived cells was observed. […] These compounds include inhibitors of Na^+/K^+ ATPases (n=6), HDACs (n=2), nucleotide biosynthesis (n=5), kinases (n=4), GPCRs (n=2), cholesterol biosynthesis (n=1), nuclear export (n=1), tubulin (n=9), as well as DNA binding compounds (n=8) and antibiotics (n=1).
# A library containing 2,486 FDA-approved compounds was purchased from the Nexus Platform ETH Zurich. Each compound was resuspended using CTC medium at a 15 μM concentration and 20 μl were aliquoted in duplicate in a total of 64 Flat Bottom Clear Ultra Low attachment 96-well plates (Corning, Cat #3474).
# To reduce cluster size in CTC derived cell lines, a 40 μm cell strainer was used (Corning, Cat #431750). […] Plates were incubated in hypoxia (5% oxygen) for 2 days and then 20 μl were transferred into a 96 well Black/clear Tissue culture treated plate (BD Falcon, Cat #353219) containing 40 μl of D-PBS (Invitrogen, Cat #14190169) and stained for 1 hr at 37° C. with a final concentration of 4 μM Hoechst 34580 (Invitrogen, Cat #H21486), 2 μM TMRM (Invitrogen, Cat #T668) and 4 μM TOTO-3 (Invitrogen, Cat #T3604). For each plate, two positive controls (non-treated cells) and two negative controls (non-treated and […] cells) were included. Z-factors were calculated per individual plate using the following formula: Z′=1−3(σs+σc)/|μs−μc|^3 (σ: standard deviation, μ: mean, s: positive control and c: negative control) (Martin et al., PLoS One 9, e88338, 2014) and ranged between 0.62-0.937. Plates were scanned using Operetta High Content Imaging System (Perkin Elmer) and cluster analysis was performed using Harmony High Content Imaging and Analysis Software (Perkin Elmer).
# [1] = system: BRx50 human CTC-derived cells; test: as above; format: cell-based; details: even at lowest concentration tested (0.1 μM)
# BR16 CTC cell line = test: 17-day treatment, WGBS and i-cisTarget analysis of DMRs that gain methylation; format: cell-based, human; details: 20 nM, 17-day treatment
# Method: (§1) In order to assess the effect of clustering on DNA methylation patterns and proliferation signature directly BR16 and BRx50 cell lines were cultured for 17 days to ensure that at least 4 divisions would take place. This is to allow proper time for DNA methylation remodeling to take place.
# (§2) Under these conditions, for both CTC derived cell lines, a subset of cluster-associated hypomethylated DMRs from patient and xenografts regain ≥20% methylation.
# (§3) Proteinase K digestion and bisulfite treatment was performed according to manufacturer's instructions for EZ DNA Methylation Direct Kit (Zymo, Cat #D5020). Bisulfite-treated DNA was eluted using 9 μl of Elution Buffer and used for library generation with TruSeq DNA methylation kit (Illumina, Cat #EGMK91396) according to manufacturer's instructions. For amplification, 18 cycles were performed using Failsafe Enzyme (Illumina, Cat #FSE51100) and indexes were introduced with Index Primers' Kit (Illumina, Cat #EGIDX81312). Library purification was performed using Agencourt AMPure XP beads at a ratio of 1:1 according to manufacturer's instructions. To avoid DNA loss during pipetting steps, Corning DeckWork low binding barrier pipet tips were used (Sigma, Cat #CLS4135-4X960EA). Library concentration was estimated using Qubit DS DNA HS Assay Kit according to manufacturer's instructions (Invitrogen, Cat #Q32854).
# (§4) An enrichment score (ES) indicates the over- or underrepresentation of a certain object within a sample of many objects (=enrichment). […] A negative enrichment score indicates the opposite, namely that a feature is less present than to be expected by the values of other features in the sample. […] An enrichment score can be normalized by dividing a specific ES by the mean of the enrichment scores for all objects in the dataset to yield a normalized enrichment score (NES). Normalization of the enrichment score accounts for differences in gene set size and in correlations between gene sets and the expression dataset; therefore, a normalized enrichment scores (NES) can be used to compare analysis results across gene sets. Only TFBS with a NES score […] shown in the analysis.
# BRx50 CTC cell line = test: as above; format: cell-based, human; details: 20 nM
# Method: as §1, §2, §3, §4
# BR16 cells = test: Tail vein injection of in vitro pre-treated BR16 cells, metastasis seeding; format: in vivo, NSG mice
# Method: To test whether ouabain and digitoxin would also enable CTC clusters disruption in vivo, the inventors took a dual approach. First, the inventors tested whether a 17-day in vitro treatment with ouabain and digitoxin would translate into a reduced ability of the treated cells to efficiently seed metastasis in untreated mice (FIG. 7A). To this end, upon treatment, BR16 cells stably expressing GFP-luciferase were injected into the tail vein of NSG mice and noninvasively monitored through luminescence imaging for their ability to seed and propagate metastatic lesions.
# For tail vein experiments, NOD SCID Gamma (NSG) mice (Jackson Labs) were injected with 1×10^6 BR16-mCherry cells resuspended in 100 μl D-PBS and monitored with IVIS Lumina II (Perkin Elmer). For CTC xenograft mouse model isolation, 1×10^6 LM2-GFP, 1×10^6 BRx50-GFP or 1×10^6 BR16-GFP cells were resuspended in 100 μl of 50% Cultrex PathClear Reduced Growth Factor Basement Membrane Extract (R&D Biosystems, Cat #3533-010-02) in D-PBS and injected orthotopically in NSG mice. Blood draw was performed 4-5 weeks after tumor onset for LM2 cells, 5-6 months after tumor onset for BR16 and 6-7 months after tumor onset for BRx50 cells.
structure (smiles),measurement,setting,value
"C[C@H]1O[C@@H](O[C@H]2[C@@H](O)C[C@H](O[C@H]3[C@@H](O)C[C@H](O[C@H]4CC[C@@]5(C)[C@H](CC[C@@H]6[C@@H]5CC[C@]5(C)[C@@H](C7=CC(=O)OC7)CC[C@]65O)C4)O[C@@H]3C)O[C@@H]2C)C[C@H](O)[C@@H]1O [digitoxin, Digitoxin]",mean cluster size,BR16 CTC-derived cells,significant decrease in mean cluster size
same,mean cluster size,[1],significant decrease in mean cluster size
same,NES score of TFBS BDP1 in DMRs with ≥20% gain in methylation,BR16 CTC cell line,"4.18,"
same,NES score of TFBS CEBPD in DMRs with ≥20% gain in methylation,BR16 CTC cell line,3.76
same,NES score of TFBS EZH2 in DMRs with ≥20% gain in methylation,BR16 CTC cell line,4.63
same,NES score of TFBS FOS in DMRs with ≥20% gain in methylation,BR16 CTC cell line,6.40 and 3.63 and 3.25
same,NES score of TFBS FOXG1/O1 in DMRs with ≥20% gain in methylation,BR16 CTC cell line,3.61
same,NES score of TFBS IRX3 in DMRs with ≥20% gain in methylation,BR16 CTC cell line,5
same,NES score of TFBS IRX6 in DMRs with ≥20% gain in methylation,BR16 CTC cell line,5 and 3.67
same,NES score of TFBS KDM5A in DMRs with ≥20% gain in methylation,BR16 CTC cell line,4.355
same,NES score of TFBS MEIS1 in DMRs with ≥20% gain in methylation,BR16 CTC cell line,3.11
same,NES score of TFBS RORA in DMRs with ≥20% gain in methylation,BR16 CTC cell line,4.93 and 3.45
same,NES score of TFBS SOX2 in DMRs with ≥20% gain in methylation,BR16 CTC cell line,3.22
same,NES score of TFBS SOX18 in DMRs with ≥20% gain in methylation,BR16 CTC cell line,3.99 and 3.91
same,NES score of TFBS STAT3 in DMRs with ≥20% gain in methylation,BR16 CTC cell line,3.31
same,NES score of TFBS YAP5 in DMRs with ≥20% gain in methylation,BR16 CTC cell line,5.4 and 5.32 and 4.56
same,NES score of TFBS ZNF92 in DMRs with ≥20% gain in methylation,BR16 CTC cell line,3.44
same,number of DMRs with ≥20% gain in methylation,BR16 CTC cell line,(n = 150)
same,NES score of TFBS BCL11A in DMRs with ≥20% gain in methylation,BRx50 CTC cell line,7.65
same,NES score of TFBS BDP1 in DMRs with ≥20% gain in methylation,BRx50 CTC cell line,6.83
same,NES score of TFBS BHLHE40/4 in DMRs with ≥20% gain in methylation,BRx50 CTC cell line,4.61
same,NES score of TFBS FOS in DMRs with ≥20% gain in methylation,BRx50 CTC cell line,4.2 and 3.4
same,NES score of TFBS HMBOX1 in DMRs with ≥20% gain in methylation,BRx50 CTC cell line,3.749
same,NES score of TFBS HSF1 in DMRs with ≥20% gain in methylation,BRx50 CTC cell line,7.2
same,NES score of TFBS KDM5D in DMRs with ≥20% gain in methylation,BRx50 CTC cell line,3.77
same,NES score of TFBS LEF1 in DMRs with ≥20% gain in methylation,BRx50 CTC cell line,3.01
same,NES score of TFBS LSM6 in DMRs with ≥20% gain in methylation,BRx50 CTC cell line,3.05
same,NES score of TFBS OCT4 in DMRs with ≥20% gain in methylation,BRx50 CTC cell line,3.49 and 3.4 and 3.37
same,NES score of TFBS POU1F1 in DMRs with ≥20% gain in methylation,BRx50 CTC cell line,4.02 and 3.98
same,NES score of TFBS REST in DMRs with ≥20% gain in methylation,BRx50 CTC cell line,4.85 and 3.16 and 3.11
same,NES score of TFBS STAT3 in DMRs with ≥20% gain in methylation,BRx50 CTC cell line,3.22
same,NES score of TFBS ZKSCAN8 in DMRs with ≥20% gain in methylation,BRx50 CTC cell line,4.32
same,NES score of TFBS ZNF493 in DMRs with ≥20% gain in methylation,BRx50 CTC cell line,3.88
same,number of DMRs with ≥20% gain in methylation,BRx50 CTC cell line,(n = 124)
same,expression of cleaved caspase 3 compared to control cells,"BR16 cells; cancer cells in lungs, pre-treated cells, day 1",significant increase
same,ability of BR16 cells to lodge in the lung tissue immediately after injection (bioluminescence flux),"BR16 cells; cells pre-treated 17 days in vitro, 20 nM, tail vein, day 0",did not affect
same,ability to survive during the first day upon arrival (bioluminescence flux),"BR16 cells; cells pre-treated 17 days in vitro, 20 nM, tail vein, day 1",reduced ability to survive
same,metastatic outgrowth,"BR16 cells; pre-treated cells, no further treatment in vivo, 72 days upon injection",delayed metastatic outgrowth
